Measurements reported in patent US7745459B2, “Quinolizinone compound and use thereof as HIV integrase inhibitor” (Japan Tobacco Inc., priority 2004, dated 2010).

What follows are compounds tested against T1, HIV integrase (Human immunodeficiency virus type 1 group M subtype B, UniProt P12497, F1332H) (assay: Determination of enzyme (HIV integrase) inhibitory activity). Settings: recombinant integrase protein (phenylalanine at codon 185 substituted by histidine); donor/target DNA, absorbance at 450 nm; read-out: Anti-integrase activity (IC50 value).
T1 construct: HIV integrase full length gene; made in house; host or cells: Escherichia coli BL21 (DE3)
Format: biochemical
Source text: The following explains evaluation methods of the HIV integrase inhibitory activity of the compound of the present invention.
HIV integrase full length gene (J. Virol., 67, 425-437 (1993)) in which phenylalanine at codon 185 was substituted by histidine, was inserted between the restriction enzyme NdeI and XhoI sites of plasmid pET21a(+) (Novagen), whereby an integrase expression vector pET21a-INH was constructed.
Escherichia coli recombinant BL21 (DE3) transformed with plasmid pET21a-INH obtained in (i) was shake cultured at 37° C. in a liquid medium containing ampicillin. When the culture reached the logarithmic growth phase, isopropyl-β-D-thiogalactopyranoside was added to promote expression of integrase gene. The culture was continued for 3 hr to promote accumulation of the integrase protein. The recombinant E. coli was collected in pellets by centrifugal separation and preserved at −80° C.
The E. coli was suspended in Lysis buffer (20 mM HEPES (pH 7.5), 5 mM DTT, 10 mM CHAPS, 10% glycerol) containing 1 M sodium chloride and subjected to repeat pressurization and depressurization for rupture, and centrifugal separation at 4° C., 40,000×g, 60 min to recover a water-soluble fraction (supernatant). This was diluted 10-fold with Lysis buffer free of sodium chloride, mixed with SP-Sepharose (Pharmacia Corporation) and stirred at 4° C. for 60 min to allow adsorption of integrase protein to the resin. The resin was washed with Lysis buffer containing 100 mM sodium chloride and the integrase protein was eluted with Lysis buffer containing 1 M sodium chloride.
The eluted integrase protein solution was subjected to a Superdex 75 (Pharmacia Corporation) column for gel filtration. The protein was eluted with Lysis buffer containing 1 M sodium chloride.
The obtained fractions of the integrase protein were collected and preserved at −80° C.
The following DNA synthesized by Greiner was dissolved in TE buffer (10 mM Tris-hydrochloric acid (pH 8.0), 1 mM EDTA) and mixed with donor DNA, target DNA, and each complementary strand (+ and − strands) to 1 μM. The mixture was heated at 95° C. for 5 min, 80° C. for 10 min, 70° C. for 10 min, 60° C. for 10 min, 50° C. for 10 min and 40° C. for 10 min and kept at 25° C. to give a double stranded DNA, which was used for the test.
The donor DNA was diluted with TE buffer to 10 nM, of which 50 μl was added to each well of streptavidin-coated microtiter plate (Roche) and allowed to adsorb at 37° C. for 60 min. The plate was washed with phosphate buffer (Dulbecco's PBS, Sanko Junyaku Co., Ltd.) containing 0.1% Tween 20 and phosphate buffer. Then, a reaction mixture (70 μl) having the following composition, a test substance (10 μl) diluted with the reaction mixture and 100 μg/ml integrase protein (10 μl) were added to each well and reacted at 37° C. for 60 min. Composition of the reaction mixture: 30 mM MOPS (3-morpholinopropanesulfonic acid), 5 mM magnesium chloride, 3 mM DTT (dithiothreitol), 0.1 mg/ml BSA (bovine serum albumin), 5% glycerol, 10% DMSO (dimethyl sulfoxide), 0.01% Tween 20.
Then, 50 nM target DNA (10 μl) was added, and the mixture was reacted at 37° C. for 10 min and washed with phosphate buffer containing 0.1% Tween 20 to stop the reaction.
Then, 100 mU/ml peroxidase labeled anti-digoxigenin antibody solution (Roche, 100 μl) was added, and the mixture was reacted at 37° C. for 60 min, followed by washing with phosphate buffer containing 0.1% Tween 20.
A peroxidase color solution (Bio Rad, 100 μl) was added and allowed to react at room temperature for 4 min. The color reaction was stopped by adding 1N sulfuric acid (100 μl). The absorbance at 450 nm was measured. […]
Work on `CN(Cc1cc(C(=O)O)c(=O)n2cc(Cc3cccc(Cl)c3F)ccc12)C(=O)OC(C)(C)C` [Example 41, 1-[(N-(tert-butoxycarbonyl)-N-methylamino)methyl]-7-(3-chloro-2-fluorobenzyl)-4-oxo-4H-quinolizine-3-carboxylic acid] yielded an IC50 of 10 to 100 nM. With `CCC(=O)NCc1cc(C(=O)O)c(=O)n2cc(Cc3cccc(Cl)c3F)ccc12` [Example 42, 7-(3-chloro-2-fluorobenzyl)-4-oxo-1-(propionylaminomethyl)-4H-quinolizine-3-carboxylic acid] the IC50 was 10 to 100 nM. `CCCC(=O)NCc1cc(C(=O)O)c(=O)n2cc(Cc3cccc(Cl)c3F)ccc12` [Example 43, 1-(butyrylaminomethyl)-7-(3-chloro-2-fluorobenzyl)-4-oxo-4H-quinolizine-3-carboxylic acid] showed an IC50 of 10 to 100 nM. Work on `CC(C)C(=O)NCc1cc(C(=O)O)c(=O)n2cc(Cc3cccc(Cl)c3F)ccc12` [Example 44, 7-(3-chloro-2-fluorobenzyl)-1-(isobutyrylaminomethyl)-4-oxo-4H-quinolizine-3-carboxylic acid] yielded an IC50 of 10 to 100 nM. With `O=C(NCc1cc(C(=O)O)c(=O)n2cc(Cc3cccc(Cl)c3F)ccc12)c1ccccc1` [Example 45, 1-(benzoylaminomethyl)-7-(3-chloro-2-fluorobenzyl)-4-oxo-4H-quinolizine-3-carboxylic acid] the IC50 was 10 to 100 nM. For `CCOC(=O)NCc1cc(C(=O)O)c(=O)n2cc(Cc3cccc(Cl)c3F)ccc12` [Example 46, 7-(3-chloro-2-fluorobenzyl)-1-(ethoxycarbonylaminomethyl)-4-oxo-4H-quinolizine-3-carboxylic acid], the IC50 was 10 to 100 nM. `O=C(O)c1cc(CNC(=O)N2CCOCC2)c2ccc(Cc3cccc(Cl)c3F)cn2c1=O` [Example 47, 7-(3-chloro-2-fluorobenzyl)-1-([(morpholinocarbonyl)amino]methyl)-4-oxo-4H-quinolizine-3-carboxylic acid] showed an IC50 of 10 to 100 nM. In the case of `CCNC(=O)NCc1cc(C(=O)O)c(=O)n2cc(Cc3cccc(Cl)c3F)ccc12` [Example 48, 7-(3-chloro-2-fluorobenzyl)-1-[(3-ethylureido)methyl]-4-oxo-4H-quinolizine-3-carboxylic acid], the IC50 is reported as 10 to 100 nM. For `O=C(Cc1ccccc1)NCc1cc(C(=O)O)c(=O)n2cc(Cc3cccc(Cl)c3F)ccc12` [Example 49, 7-(3-chloro-2-fluorobenzyl)-4-oxo-1-(phenylacetylaminomethyl)-4H-quinolizine-3-carboxylic acid], the IC50 was 10 to 100 nM. For `O=C(O)C(=O)NCc1cc(C(=O)O)c(=O)n2cc(Cc3cccc(Cl)c3F)ccc12` [Example 50, 7-(3-chloro-2-fluorobenzyl)-1-[(oxalylamino)methyl]-4-oxo-4H-quinolizine-3-carboxylic acid], the IC50 was 10 to 100 nM. `O=C(COc1ccccc1)NCc1cc(C(=O)O)c(=O)n2cc(Cc3cccc(Cl)c3F)ccc12` [Example 51, 7-(3-chloro-2-fluorobenzyl)-4-oxo-1-[(2-phenoxyacetylamino)methyl]-4H-quinolizine-3-carboxylic acid] was tested, and the IC50 was 10 to 100 nM. `CO[C@@H](C)C(=O)NCc1cc(C(=O)O)c(=O)n2cc(Cc3cccc(Cl)c3F)ccc12` [Example 52, 7-(3-chloro-2-fluorobenzyl)-1-[((S)-2-methoxypropionylamino)methyl]-4-oxo-4H-quinolizine-3-carboxylic acid] showed an IC50 of 10 to 100 nM. `CO[C@H](C)C(=O)NCc1cc(C(=O)O)c(=O)n2cc(Cc3cccc(Cl)c3F)ccc12` [Example 53, 7-(3-chloro-2-fluorobenzyl)-1-[((R)-2-methoxypropionylamino)methyl]-4-oxo-4H-quinolizine-3-carboxylic acid] showed an IC50 of 10 to 100 nM. For `O=C(O)CCC(=O)NCc1cc(C(=O)O)c(=O)n2cc(Cc3cccc(Cl)c3F)ccc12` [Example 54, 1-[(3-carboxypropionylamino)methyl]-7-(3-chloro-2-fluorobenzyl)-4-oxo-4H-quinolizine-3-carboxylic acid], the IC50 was 10 to 100 nM. `CCOCC(=O)NCc1cc(C(=O)O)c(=O)n2cc(Cc3cccc(Cl)c3F)ccc12` [Example 55, 7-(3-chloro-2-fluorobenzyl)-1-[(2-ethoxyacetylamino)methyl]-4-oxo-4H-quinolizine-3-carboxylic acid] was tested, and the IC50 was 10 to 100 nM. Compound `COC(C)(C)C(=O)NCc1cc(C(=O)O)c(=O)n2cc(Cc3cccc(Cl)c3F)ccc12` [Example 56, 7-(3-chloro-2-fluorobenzyl)-1-[(2-methoxy-2-methylpropionylamino)methyl]-4-oxo-4H-quinolizine-3-carboxylic acid] has an IC50 of 100 to 1000 nM. `CC(=O)NCC(=O)NCc1cc(C(=O)O)c(=O)n2cc(Cc3cccc(Cl)c3F)ccc12` [Example 57, 1-[(2-acetylaminoacetylamino)methyl]-7-(3-chloro-2-fluorobenzyl)-4-oxo-4H-quinolizine-3-carboxylic acid] showed an IC50 of 100 to 1000 nM. `COCOc1cc(C(=O)O)c(=O)n2cc(Cc3cccc(Cl)c3F)ccc12` [Example 58, 7-(3-chloro-2-fluorobenzyl)-1-methoxymethoxy-4-oxo-4H-quinolizine-3-carboxylic acid] showed an IC50 of 100 to 1000 nM. `CCOC(=O)c1cc(NC(=O)OC(C)(C)C)c2ccc(Cc3cccc(Cl)c3F)cn2c1=O` [Example 60, ethyl 1-(tert-butoxycarbonylamino)-7-(3-chloro-2-fluorobenzyl)-4-oxo-4H-quinolizine-3-carboxylate] was tested, and the IC50 was 100 to 1000 nM. Compound `CC(=O)Nc1cc(C(=O)O)c(=O)n2cc(Cc3cccc(Cl)c3F)ccc12` [Example 61, 1-acetylamino-7-(3-chloro-2-fluorobenzyl)-4-oxo-4H-quinolizine-3-carboxylic acid] has an IC50 of 100 to 1000 nM. In the case of `CC(C)(C)OC(=O)c1cc(C(=O)O)c(=O)n2cc(Cc3cccc(Cl)c3F)ccc12` [Example 62, 7-(3-chloro-2-fluorobenzyl)-4-oxo-4H-quinolizine-1,3-dicarboxylic acid 1-tert-butyl ester], the IC50 is reported as 100 to 1000 nM. Work on `CC(C)[C@@H](CO)c1cc(C(=O)O)c(=O)n2cc(Cc3cccc(Cl)c3Cl)ccc12` [Example 63, 7-(2,3-dichlorobenzyl)-1-((R)-1-hydroxymethyl-2-methylpropyl)-4-oxo-4H-quinolizine-3-carboxylic acid] yielded an IC50 of under 10 nM. `CC(C)(C)[C@@H](CO)c1cc(C(=O)O)c(=O)n2cc(Cc3cccc(Cl)c3Cl)ccc12` [Example 64, 7-(2,3-dichlorobenzyl)-1-((R)-1-hydroxymethyl-2,2-dimethylpropyl)-4-oxo-4H-quinolizine-3-carboxylic acid] was tested, and the IC50 was under 10 nM.
